This note sets out measurements from the supplement of paper PMC10307832.

Common to all, as to experiment: relative viability (nuclei count vs DMSO), 5 days (fraction); higher = more cells survive
Compound in test [1]: C1=CC=C(C(=C1)C2=CC=C(C=C2)C3=CSC4=C3C(=C(C(=O)N4)C#N)O)O + COc1cc2c(Oc3ccc(NC(=O)C4(C(=O)Nc5ccc(F)cc5)CC4)cc3F)ccnc2cc1OCCCN1CCOCC1 [Foretinib] (partner 0.25 µM)
In outline: (§1)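 For relative viability, nuclei counts in treated wells were divided by those in vehicle wells. Lung cancer cell lines had been pin-tool dosed in 1536-well plates the day after seeding and cultured for 5 days, then fixed and stained in one step (final 0.05% Triton X-100, 1% formaldehyde, 1 ug/ml Hoechst) and imaged at 4×. Doses were one drug alone or a fixed anchor-drug dose plus five library-drug doses (not always all listed) in √10 steps, and values are duplicate-plate medians.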

Compound in the test “TGX 221 + Tozasertib”: CC1=CN2C(=O)C=C(N=C2C(=C1)C(C)NC3=CC=CC=C3)N4CCOCC4 [TGX 221] + Cc1cc(Nc2cc(N3CCN(C)CC3)nc(Sc3ccc(NC(=O)C4CC4)cc3)n2)n[nH]1 [Tozasertib] (partner 0.1 µM)
In outline: as §1

Compound in the test “TGX 221 + Decitabine”: CC1=CN2C(=O)C=C(N=C2C(=C1)C(C)NC3=CC=CC=C3)N4CCOCC4 [TGX 221] + Nc1ncn([C@H]2C[C@H](O)[C@@H](CO)O2)c(=O)n1 [Decitabine] (partner 2 µM)
In outline: as §1

Compound in test [2]: C1=CC=C(C(=C1)C2=CC=C(C=C2)C3=CSC4=C3C(=C(C(=O)N4)C#N)O)O + CS(=O)(=O)CCNCc1ccc(-c2ccc3ncnc(Nc4ccc(OCc5cccc(F)c5)c(Cl)c4)c3c2)o1 [Lapatinib] (partner 2 µM)
In outline: as §1

Consider NCI-H1651, for which the relative viability in test [1] (first compound 0.08 µM) amounted to 0.848; in test [1] (first compound 0.253 µM) it was 0.774; in test [1] (first compound 0.8 µM) it was 0.924; in test [1] (first compound 2.53 µM), 0.76; in test [1] (first compound 8 µM), 0.714; with TGX 221 + Tozasertib (first compound 0.08 µM), 0.602. Besides, the relative viability with TGX 221 + Tozasertib (first compound 0.253 µM) amounted to 0.649; in the test with TGX 221 + Tozasertib (first compound 0.8 µM) it was 0.696; in the test with TGX 221 + Tozasertib (first compound 2.53 µM), 0.566; with TGX 221 + Tozasertib (first compound 8 µM), 0.418; with TGX 221 + Decitabine (first compound 0.08 µM), 0.524; with TGX 221 + Decitabine (first compound 0.253 µM), 0.675. Also, the relative viability in the test with TGX 221 + Decitabine (first compound 0.8 µM) was 0.492; with TGX 221 + Decitabine (first compound 2.53 µM), 0.594; with TGX 221 + Decitabine (first compound 8 µM), 0.601; in test [2] (first compound 0.08 µM) it was 0.697; in test [2] (first compound 0.253 µM), 0.799; in test [2] (first compound 0.8 µM), 0.78. For the same cell line, the values for the relative viability in test [2] (first compound 2.53 µM) and in test [2] (first compound 8 µM) were 0.821 and 0.683, respectively.

Consider NCI-H2170, for which the relative viability turned out to be 0.951 in test [1] (first compound 0.08 µM); 1.03 in test [1] (first compound 0.253 µM); 0.988 in test [1] (first compound 0.8 µM); 1.03 in test [1] (first compound 2.53 µM); 0.932 in test [1] (first compound 8 µM); 0.658 in the test with TGX 221 + Tozasertib (first compound 0.08 µM). Also, the relative viability turned out to be 0.666 with TGX 221 + Tozasertib (first compound 0.253 µM); 0.626 in the test with TGX 221 + Tozasertib (first compound 0.8 µM); 0.731 with TGX 221 + Tozasertib (first compound 2.53 µM); 0.67 in the test with TGX 221 + Tozasertib (first compound 8 µM); 0.403 in the test with TGX 221 + Decitabine (first compound 0.08 µM); 0.464 with TGX 221 + Decitabine (first compound 0.253 µM). Further, the relative viability in the test with TGX 221 + Decitabine (first compound 0.8 µM) is 0.441; with TGX 221 + Decitabine (first compound 2.53 µM) it was 0.438; in the test with TGX 221 + Decitabine (first compound 8 µM), 0.495; in test [2] (first compound 0.08 µM), 0.267; in test [2] (first compound 0.253 µM), 0.276; in test [2] (first compound 0.8 µM), 0.278. Besides, the relative viability was 0.279 in test [2] (first compound 2.53 µM) and 0.286 in test [2] (first compound 8 µM).

With NCI-H1915, the relative viability in test [1] (first compound 0.08 µM) stood at 1.12; in test [1] (first compound 0.253 µM) it was 1.24; in test [1] (first compound 2.53 µM), 1.08; in test [1] (first compound 8 µM), 0.747; with TGX 221 + Tozasertib (first compound 0.08 µM), 0.399; in the test with TGX 221 + Tozasertib (first compound 0.253 µM) it was 0.406. Further, the relative viability came out at 0.422 with TGX 221 + Tozasertib (first compound 0.8 µM); 0.389 in the test with TGX 221 + Tozasertib (first compound 2.53 µM); 0.377 with TGX 221 + Tozasertib (first compound 8 µM); 0.254 with TGX 221 + Decitabine (first compound 0.08 µM); 0.255 in the test with TGX 221 + Decitabine (first compound 0.253 µM); 0.256 with TGX 221 + Decitabine (first compound 0.8 µM). For the same cell line, the relative viability was determined as 0.257 with TGX 221 + Decitabine (first compound 2.53 µM); 0.257 with TGX 221 + Decitabine (first compound 8 µM); 0.835 in test [2] (first compound 0.08 µM); 1.04 in test [2] (first compound 0.253 µM); 0.924 in test [2] (first compound 0.8 µM); 1.15 in test [2] (first compound 2.53 µM). In addition, the relative viability in test [2] (first compound 8 µM) was determined as 0.882.

With EBC-1, the relative viability in test [1] (first compound 0.08 µM) was found to be 0.103; in test [1] (first compound 0.253 µM), 0.101; in test [1] (first compound 0.8 µM), 0.123; in test [1] (first compound 2.53 µM), 0.0897; in test [1] (first compound 8 µM), 0.115; in test [2] (first compound 0.08 µM) it was 0.265. Further, the relative viability is 0.226 in test [2] (first compound 0.253 µM), 0.223 in test [2] (first compound 0.8 µM), 0.209 in test [2] (first compound 2.53 µM) and 0.173 in test [2] (first compound 8 µM).

NCI-H1299: the relative viability amounted to 1.1 in test [1] (first compound 0.08 µM); 1.07 in test [1] (first compound 0.253 µM); 1.09 in test [1] (first compound 0.8 µM); 1.11 in test [1] (first compound 2.53 µM); 1.17 in test [1] (first compound 8 µM); 0.923 in test [2] (first compound 0.08 µM). Besides, the relative viability in test [2] (first compound 0.253 µM) is 0.929; in test [2] (first compound 0.8 µM), 0.987; in test [2] (first compound 2.53 µM) it was 0.961; in test [2] (first compound 8 µM), 0.948.

Take ChaGo-K-1: the relative viability in test [1] (first compound 0.08 µM) amounted to 0.882; in test [1] (first compound 0.253 µM), 0.9; in test [1] (first compound 0.8 µM), 1.08; in test [1] (first compound 2.53 µM) it was 1.02; in test [1] (first compound 8 µM), 0.723; with TGX 221 + Tozasertib (first compound 0.08 µM), 0.22. For the same cell line, the relative viability was determined as 0.202 in the test with TGX 221 + Tozasertib (first compound 0.253 µM); 0.216 in the test with TGX 221 + Tozasertib (first compound 0.8 µM); 0.219 with TGX 221 + Tozasertib (first compound 2.53 µM); 0.191 in the test with TGX 221 + Tozasertib (first compound 8 µM); 0.485 with TGX 221 + Decitabine (first compound 0.08 µM); 0.519 with TGX 221 + Decitabine (first compound 0.253 µM). The relative viability was found to be 0.563 in the test with TGX 221 + Decitabine (first compound 0.8 µM), 0.544 with TGX 221 + Decitabine (first compound 2.53 µM) and 0.548 in the test with TGX 221 + Decitabine (first compound 8 µM).

SW 900: the relative viability in test [1] (first compound 0.08 µM) worked out at 0.914; in test [1] (first compound 0.253 µM) it was 0.519; in test [1] (first compound 0.8 µM), 0.923; in test [1] (first compound 2.53 µM), 0.634; in test [1] (first compound 8 µM), 0.62; with TGX 221 + Tozasertib (first compound 0.08 µM), 0.657. Besides, the relative viability stood at 0.749 with TGX 221 + Tozasertib (first compound 0.253 µM); 0.824 in the test with TGX 221 + Tozasertib (first compound 0.8 µM); 0.636 with TGX 221 + Tozasertib (first compound 2.53 µM); 0.453 with TGX 221 + Tozasertib (first compound 8 µM); 0.406 with TGX 221 + Decitabine (first compound 0.253 µM); 0.466 with TGX 221 + Decitabine (first compound 0.8 µM). The relative viability with TGX 221 + Decitabine (first compound 2.53 µM) came out at 0.42; in the test with TGX 221 + Decitabine (first compound 8 µM) it was 0.351.

As to NCI-H1703, the relative viability in test [1] (first compound 0.08 µM) came to 0.284; in test [1] (first compound 0.253 µM), 0.355; in test [1] (first compound 0.8 µM), 0.35; in test [1] (first compound 2.53 µM), 0.363; in test [1] (first compound 8 µM), 0.409; in test [2] (first compound 0.08 µM), 0.896. The relative viability is 1.2 in test [2] (first compound 0.253 µM), 0.945 in test [2] (first compound 0.8 µM), 1.16 in test [2] (first compound 2.53 µM) and 0.939 in test [2] (first compound 8 µM).

Turning to NCI-H522, the relative viability turned out to be 0.52 with TGX 221 + Tozasertib (first compound 0.08 µM); 0.559 in the test with TGX 221 + Tozasertib (first compound 0.253 µM); 0.575 in the test with TGX 221 + Tozasertib (first compound 0.8 µM); 0.502 with TGX 221 + Tozasertib (first compound 2.53 µM); 0.513 with TGX 221 + Tozasertib (first compound 8 µM); 0.717 with TGX 221 + Decitabine (first compound 0.08 µM). Moreover, the relative viability in the test with TGX 221 + Decitabine (first compound 0.253 µM) was determined as 0.624; in the test with TGX 221 + Decitabine (first compound 0.8 µM), 0.696; in the test with TGX 221 + Decitabine (first compound 2.53 µM), 0.587; with TGX 221 + Decitabine (first compound 8 µM) it was 0.64.
